According to PMC12318229, “RACK1A positively regulates opening of the apical hook in Arabidopsis thaliana via suppression of its auxin response gradient” (Proceedings of the National Academy of Sciences of the …, 2025):

Biological target: T1, RACK1A (RECEPTOR FOR ACTIVATED C KINASE 1A) (Arabidopsis thaliana, UniProt O24456)
T1 construct: WD40 seven-bladed beta-propeller scaffold protein
Test: microscale thermophoresis (MST)
Type: binding

T1 sequence (O24456 whole entry): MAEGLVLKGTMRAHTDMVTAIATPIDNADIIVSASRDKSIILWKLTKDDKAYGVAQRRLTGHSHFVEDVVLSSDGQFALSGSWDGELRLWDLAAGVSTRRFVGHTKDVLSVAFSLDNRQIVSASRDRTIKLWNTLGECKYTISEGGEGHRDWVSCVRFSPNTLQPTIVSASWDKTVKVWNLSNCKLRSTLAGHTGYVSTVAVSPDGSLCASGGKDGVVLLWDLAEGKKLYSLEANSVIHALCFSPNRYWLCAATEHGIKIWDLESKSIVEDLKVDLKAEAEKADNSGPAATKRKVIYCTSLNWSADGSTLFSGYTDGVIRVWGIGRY

A Kd of 32.8 ± 15.7 µM was found for COc1cc(OC)cc(C(=O)Nc2ccc3ccccc3c2)c1 [DAPIA] in this work.
